Results from patent publication US20260097047A1, “Small molecule inhibitors of the ribosome biogenesis factor NVL2” (Board of Regents, The University of Texas System, priority 2023, published 2026).

test system: HCT116 cells; test: Cell viability assay (CellTiter-Glo, 72 hours) in HCT116 human colorectal cancer cells; type: cell-based; settings: Table 8; analogs of scaffold drawing 43 defined by R^2, R^3, X/Y, W; read-out: Activity (IC50 class, cell viability assay)
Method in brief: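 Ten-point IC50 came from an asymmetric five-parameter fit of luminescence corrected to vehicle wells. ATP content was measured by CellTiter-Glo 72 h after dosing at 37 °C. Cells were seeded at 2,000/well the day before, with 0.5% DMSO in all wells.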

Structure (SMILES)	IC50
COCC=CC(=O)Nc1ccc2c(c1)Sc1ccccc1C(=O)N2CC#CC(F)(F)F [—CH2CCCF3; CH═CHCH2OMe; CH/CH; CH]	< 500 nM
CO[C@H]1C[C@H](C(=O)Nc2cnc3c(c2)Sc2ccccc2C(=O)N3CC#CC(F)(F)F)C1 [—CH2CCCF3; trans-3-MeOcBu; CH/CH; N]	< 500 nM
COCC1CC(C(=O)Nc2ccc3c(c2)Sc2ccc(F)cc2C(=O)N3CC#CCF)C1 (stereo not drawn) [—CH2CCCH2F; 3-MeOCH2-cBu; CH/CF; CH]	< 500 nM
CO[C@H]1C[C@H](C(=O)Nc2ccc3c(c2)Sc2ccc(F)cc2C(=O)N3CC#CCF)C1 [—CH2CCCH2F; trans-3-MeOcBu; CH/CF; CH]	< 500 nM
CO[C@H]1C[C@H](C(=O)Nc2cnc3c(c2)Sc2ccccc2C(=O)N3CC#CCF)C1 [—CH2CCCH2F; trans-3-MeOcBu; CH/CH; N]	< 500 nM
CO[C@H]1C[C@@H](C(=O)Nc2cnc3c(c2)Sc2cc(Cl)ccc2C(=O)N3CC#CCl)C1 [—CH2CCCl; cis-3-MeOcBu; CCl/CH; N]	< 500 nM
CO[C@H]1C[C@@H](C(=O)Nc2ccc3c(c2)Sc2ccc(F)cc2C(=O)N3CC#CCl)C1 [—CH2CCCl; cis-3-MeOcBu; CH/CF; CH]	< 500 nM
CO[C@H]1C[C@H](C(=O)Nc2cnc3c(c2)Sc2cc(Cl)ccc2C(=O)N3CC#CCl)C1 [—CH2CCCl; trans-3-MeOcBu; CCI/CH; N]	< 500 nM
CO[C@H]1C[C@H](C(=O)Nc2cnc3c(c2)Sc2ccccc2C(=O)N3CC#CCl)C1 [—CH2CCCl; trans-3-MeOcBu; CH/CH; N]	< 500 nM
C#CCN1C(=O)c2cc(F)ccc2Sc2cc(NC(=O)C3CC(COC)C3)ccc21 (stereo not drawn) [—CH2CCH; 3-MeOCH2-cBu; CH/CF; CH]	< 500 nM
C#CCN1C(=O)c2ccccc2Sc2cc(NC(=O)[C@H]3C[C@H](OC)C3)ccc21 [—CH2CCH; trans-3-MeOcBu; CH/CH; CH]	< 500 nM
CC#CCN1C(=O)c2ccccc2Sc2cc(NC(=O)c3cccc(CCC#N)c3)ccc21 [—CH2CCMe; 3-(2′-CNEt)Ph; CH/CH; CH]	< 500 nM
CC#CCN1C(=O)c2ccccc2Sc2cc(NC(=O)c3cccc(C(=O)N(C)C)c3)ccc21 [—CH2CCMe; 3-Me2NC(O)Ph; CH/CH; CH]	< 500 nM
CC#CCN1C(=O)c2cc(F)ccc2Sc2cc(NC(=O)C3CC(COC)C3)cnc21 (stereo not drawn) [—CH2CCMe; 3-MeOCH2-cBu; CH/CF; N]	< 500 nM
CC#CCN1C(=O)c2ccc(F)cc2Sc2cc(NC(=O)c3cccc(OC)c3)ccc21 [—CH2CCMe; 3-MeOPh; CF/CH; CH]	< 500 nM
CC#CCN1C(=O)c2ccccc2Sc2cc(NC(=O)c3ccc(OC(F)(F)F)cc3)ccc21 [—CH2CCMe; 4-CF3OPh; CH/CH; CH]	< 500 nM

Structure (SMILES)	IC50
CC#CCN1C(=O)c2ccc(F)cc2Sc2cc(NC(=O)c3ccc(OCF)cc3)ccc21 [—CH2CCMe; 4-FH2COPh; CF/CH; CH]	< 500 nM
CC#CCN1C(=O)c2ccccc2Sc2cc(NC(=O)c3ccc(OCF)cc3)ccc21 [—CH2CCMe; 4-FH2COPh; CH/CH; CH]	< 500 nM
CC#CCN1C(=O)c2ccc(F)cc2Sc2cc(NC(=O)c3ccc(OC)cc3)ccc21 [—CH2CCMe; 4-MeOPh; CF/CH; CH]	< 500 nM
CC#CCN1C(=O)c2cc(F)ccc2Sc2cc(NC(=O)c3ccc(OC)cc3)ccc21 [—CH2CCMe; 4-MeOPh; CH/CF; CH]	< 500 nM
CC#CCN1C(=O)c2ccccc2Sc2cc(NC(=O)c3ccc(OC)cc3)ccc21 [—CH2CCMe; 4-MeOPh; CH/CH; CH]	< 500 nM
CC#CCN1C(=O)c2ccccc2Sc2cc(NC(=O)c3ccc(OC)cc3)cnc21 [—CH2CCMe; 4-MeOPh; CH/CH; N]	< 500 nM
CC#CCN1C(=O)c2ccccc2Sc2cc(NC(=O)c3ccc(OC)nc3)ccc21 [—CH2CCMe; 6-MeO-pyrid-3-yl; CH/CH; CH]	< 500 nM
CC#CCN1C(=O)c2ccccc2Sc2cc(NC(=O)CCC#N)ccc21 [—CH2CCMe; (CH2)2CN; CH/CH; CH]	< 500 nM
CC#CCN1C(=O)c2cc(F)ccc2Sc2cc(NC(=O)CCCOC)ccc21 [—CH2CCMe; (CH2)3OMe; CH/CF; CH]	< 500 nM
CC#CCN1C(=O)c2ccc(Cl)cc2Sc2cc(NC(=O)CC3COC3)ccc21 [—CH2CCMe; (oxetan-3-yl)CH2; CCl/CH; CH]	< 500 nM
CC#CCN1C(=O)c2ccc(Cl)cc2Sc2cc(NC(=O)CC3COC3)cnc21 [—CH2CCMe; (oxetan-3-yl)CH2; CCl/CH; N]	< 500 nM
CC#CCN1C(=O)c2ccc(F)cc2Sc2cc(NC(=O)CC3COC3)ccc21 [—CH2CCMe; (oxetan-3-yl)CH2; CF/CH; CH]	< 500 nM
CC#CCN1C(=O)c2ccccc2Sc2cc(NC(=O)C=CCO)ccc21 [—CH2CCMe; CH—CHCH2OH; CH/CH; CH]	< 500 nM
CC#CCN1C(=O)c2ccc(C#N)cc2Sc2cc(NC(=O)C=CCOC)ccc21 [—CH2CCMe; CH—═CHCH2OMe; CCN/CH; CH]	< 500 nM
CC#CCN1C(=O)c2cc(F)ccc2Sc2cc(NC(=O)C=CCOC)ccc21 [—CH2CCMe; CH—═CHCH2OMe; CH/CF; CH]	< 500 nM
CC#CCN1C(=O)c2ccc(Cl)cc2Sc2cc(NC(=O)C=CCO)ccc21 [—CH2CCMe; CH═CHCH2OH; CCI/CH; CH]	< 500 nM

Next, values leading:

IC50	Structure (SMILES)
< 500 nM	O=C(C=CCO)Nc1cnc2c(c1)Sc1ccccc1C(=O)N2CC#CC(F)(F)F [—CH2CCCF3; CH—═CHCH2OH; CH/CH; N]
< 500 nM	COCC=CC(=O)Nc1cnc2c(c1)Sc1ccccc1C(=O)N2CC#CC(F)(F)F [—CH2CCCF3; CH═CHCH2OMe; CH/CH; N]
< 500 nM	CO[C@H]1C[C@@H](C(=O)Nc2cnc3c(c2)Sc2ccccc2C(=O)N3CC#CC(F)(F)F)C1 [—CH2CCCF3; cis-3-MeOcBu; CH/CH; N]
< 500 nM	CO[C@H]1C[C@@H](C(=O)Nc2ccc3c(c2)Sc2ccc(F)cc2C(=O)N3CC#CCF)C1 [—CH2CCCH2F; cis-3-MeOcBu; CH/CF; CH]
< 500 nM	COCC1CC(C(=O)Nc2cnc3c(c2)Sc2cc(Cl)ccc2C(=O)N3CC#CCl)C1 (stereo not drawn) [—CH2CCCl; 3-MeOCH2-cBu; CCI/CH; N]
< 500 nM	O=C(Nc1cnc2c(c1)Sc1cc(Cl)ccc1C(=O)N2CC#CCl)C1CC1CO (stereo not drawn) [—CH2CCCl; trans-2-HOCH2-cPr; CCl/CH; N]
< 500 nM	CO[C@H]1C[C@H](C(=O)Nc2ccc3c(c2)Sc2cc(Cl)ccc2C(=O)N3CC#CCl)C1 [—CH2CCCl; trans-3-MeOcBu; CCI/CH; CH]
< 500 nM	CO[C@H]1C[C@H](C(=O)Nc2ccc3c(c2)Sc2ccc(F)cc2C(=O)N3CC#CCl)C1 [—CH2CCCl; trans-3-MeOcBu; CH/CF; CH]
< 500 nM	C#CCN1C(=O)c2ccc(Cl)cc2Sc2cc(NC(=O)[C@H]3C[C@H](OC)C3)ccc21 [—CH2CCH; trans-3-MeOcBu; CCl/CH; CH]
< 500 nM	C#CCN1C(=O)c2cc(F)ccc2Sc2cc(NC(=O)[C@H]3C[C@H](OC)C3)ccc21 [—CH2CCH; trans-3-MeOcBu; CH/CF; CH]
1000 to 5000 nM	CC#CCN1C(=O)c2ccccc2Sc2cc(NC(=O)C3CNC(=O)C3)ccc21 (stereo not drawn) [—CH2CCMe; 2-oxo-pyrrolidin-4-yl; CH/CH; CH]
< 500 nM	CC#CCN1C(=O)c2cc(F)ccc2Sc2cc(NC(=O)c3cccc(OC)c3)ccc21 [—CH2CCMe; 3-MeOPh; CH/CF; CH]
< 500 nM	CC#CCN1C(=O)c2ccccc2Sc2cc(NC(=O)c3cccc(OC)c3)ccc21 [—CH2CCMe; 3-MeOPh; CH/CH; CH]
< 500 nM	CC#CCN1C(=O)c2ccccc2Sc2cc(NC(=O)C3CNC(=O)C3)ccc21 (stereo not drawn) [—CH2CCMe; 5-oxopyrrolidin-3-yl; CH/CH; CH]
< 500 nM	C#Cc1ccc(C(=O)Nc2ccc3c(c2)Sc2ccccc2C(=O)N3CC#CC)cn1 [—CH2CCMe; 6-(HCC)pyrid-3-yl; CH/CH; CH]
< 500 nM	CC#CCN1C(=O)c2ccc(F)cc2Sc2cc(NC(=O)c3ccc(OC)nc3)ccc21 [—CH2CCMe; 6-MeO-pyrid-3-yl; CF/CH; CH]

IC50	Structure (SMILES)
< 500 nM	CC#CCN1C(=O)c2ccccc2Sc2cc(NC(=O)c3ccc(OC)nc3)cnc21 [—CH2CCMe; 6-MeO-pyrid-3-yl; CH/CH; N]
< 500 nM	CC#CCN1C(=O)c2ccccc2Sc2cc(NC(=O)CCCO)cnc21 [—CH2CCMe; (CH2)3 OH; CH/CH; N]
< 500 nM	CC#CCN1C(=O)c2ccc(Cl)cc2Sc2cc(NC(=O)CCCO)ccc21 [—CH2CCMe; (CH2)3OH; CCl/CH; CH]
< 500 nM	CC#CCN1C(=O)c2cc(F)ccc2Sc2cc(NC(=O)CCCO)ccc21 [—CH2CCMe; (CH2)3OH; CH/CF; CH]
< 500 nM	CC#CCN1C(=O)c2ccccc2Sc2cc(NC(=O)CCCO)ccc21 [—CH2CCMe; (CH2)3OH; CH/CH; CH]
< 500 nM	CC#CCN1C(=O)c2ccccc2Sc2cc(NC(=O)CC3COC3)ccc21 [—CH2CCMe; (oxetan-3-yl)CH2; CH/CH; CH]
< 500 nM	CC#CCN1C(=O)c2ccccc2Sc2cc(NC(=O)CC3COC3)cnc21 [—CH2CCMe; (oxetan-3-yl)CH2; CH/CH; N]
500 to 1000 nM	CC#CCN1C(=O)c2ccccc2Sc2cc(NC(=O)C#CCOC)ccc21 [—CH2CCMe; CCCH2OMe; CH/CH; CH]
< 500 nM	CC#CCN1C(=O)c2ccccc2Sc2cc(NC(=O)C#CC)ccc21 [—CH2CCMe; CCMe; CH/CH; CH]
< 500 nM	CC#CCN1C(=O)c2ccccc2Sc2cc(NC(=O)C=CCOC)cnc21 [—CH2CCMe; CH—CHCH2OMe; CH/CH; N]
< 500 nM	CC#CCN1C(=O)c2ccc(Cl)cc2Sc2cc(NC(=O)C=CCO)cnc21 [—CH2CCMe; CH—═CHCH2OH; CCI/CH; N]
< 500 nM	CC#CCN1C(=O)c2ccc(Cl)cc2Sc2cc(NC(=O)C=CCOC)cnc21 [—CH2CCMe; CH—═CHCH2OMe; CCl/CH; N]
< 500 nM	CC#CCN1C(=O)c2cc(F)ccc2Sc2cc(NC(=O)C=CCOC)cnc21 [—CH2CCMe; CH—═CHCH2OMe; CH/CF; N]
< 500 nM	CC#CCN1C(=O)c2cc(F)ccc2Sc2cc(NC(=O)C=CCO)ccc21 [—CH2CCMe; CH═CHCH2OH; CH/CF; CH]
< 500 nM	CC#CCN1C(=O)c2cc(F)ccc2Sc2cc(NC(=O)C=CCO)cnc21 [—CH2CCMe; CH═CHCH2OH; CH/CF; N]

same assay, conditions: cell viability assay; Table 10 analogs of scaffold drawing 45 defined by R2, R3, X/Y, W; read-out: Activity

IC50	Structure (SMILES)
< 500 nM	CO[C@H]1C[C@H](C(=O)Nc2cnc3c(c2)Sc2ccccc2C(=O)N3CC#CCF)C1 [—CH2CCCH2F; trans-3-MeOcBu; CH/CH; N]
< 500 nM	CO[C@H]1C[C@H](C(=O)Nc2cnc3c(c2)Sc2ccccc2C(=O)N3CC#CCl)C1 [—CH2CCCl; trans-3-MeOcBu; CH/CH; N]
< 500 nM	C#CCN1C(=O)c2ccccc2Sc2cc(NC(=O)[C@H]3C[C@H](OC)C3)ccc21 [—CH2CCH; trans-3-MeOcBu; CH/CH; CH]
